In ChEMBL document CHEMBL5143756, “Identification of a BAZ2A-Bromodomain Hit Compound by Fragment Growing” (ACS Med Chem Lett, 2022):

Target: Bromodomain adjacent to zinc finger domain protein 2A (Homo sapiens) (UniProt Q9UIF9)
Assay: Inhibition of His6-tagged BAZ2A (unknown origin) (1796 to 1899 residues) assessed as residual activity at 100 uM using H3K(Ac)14 substrate by AlphaScreen assay relative to control

Chain of Bromodomain adjacent to zinc finger domain protein 2A (Homo sapiens) (Q9UIF9 whole entry, the tested form may be a part): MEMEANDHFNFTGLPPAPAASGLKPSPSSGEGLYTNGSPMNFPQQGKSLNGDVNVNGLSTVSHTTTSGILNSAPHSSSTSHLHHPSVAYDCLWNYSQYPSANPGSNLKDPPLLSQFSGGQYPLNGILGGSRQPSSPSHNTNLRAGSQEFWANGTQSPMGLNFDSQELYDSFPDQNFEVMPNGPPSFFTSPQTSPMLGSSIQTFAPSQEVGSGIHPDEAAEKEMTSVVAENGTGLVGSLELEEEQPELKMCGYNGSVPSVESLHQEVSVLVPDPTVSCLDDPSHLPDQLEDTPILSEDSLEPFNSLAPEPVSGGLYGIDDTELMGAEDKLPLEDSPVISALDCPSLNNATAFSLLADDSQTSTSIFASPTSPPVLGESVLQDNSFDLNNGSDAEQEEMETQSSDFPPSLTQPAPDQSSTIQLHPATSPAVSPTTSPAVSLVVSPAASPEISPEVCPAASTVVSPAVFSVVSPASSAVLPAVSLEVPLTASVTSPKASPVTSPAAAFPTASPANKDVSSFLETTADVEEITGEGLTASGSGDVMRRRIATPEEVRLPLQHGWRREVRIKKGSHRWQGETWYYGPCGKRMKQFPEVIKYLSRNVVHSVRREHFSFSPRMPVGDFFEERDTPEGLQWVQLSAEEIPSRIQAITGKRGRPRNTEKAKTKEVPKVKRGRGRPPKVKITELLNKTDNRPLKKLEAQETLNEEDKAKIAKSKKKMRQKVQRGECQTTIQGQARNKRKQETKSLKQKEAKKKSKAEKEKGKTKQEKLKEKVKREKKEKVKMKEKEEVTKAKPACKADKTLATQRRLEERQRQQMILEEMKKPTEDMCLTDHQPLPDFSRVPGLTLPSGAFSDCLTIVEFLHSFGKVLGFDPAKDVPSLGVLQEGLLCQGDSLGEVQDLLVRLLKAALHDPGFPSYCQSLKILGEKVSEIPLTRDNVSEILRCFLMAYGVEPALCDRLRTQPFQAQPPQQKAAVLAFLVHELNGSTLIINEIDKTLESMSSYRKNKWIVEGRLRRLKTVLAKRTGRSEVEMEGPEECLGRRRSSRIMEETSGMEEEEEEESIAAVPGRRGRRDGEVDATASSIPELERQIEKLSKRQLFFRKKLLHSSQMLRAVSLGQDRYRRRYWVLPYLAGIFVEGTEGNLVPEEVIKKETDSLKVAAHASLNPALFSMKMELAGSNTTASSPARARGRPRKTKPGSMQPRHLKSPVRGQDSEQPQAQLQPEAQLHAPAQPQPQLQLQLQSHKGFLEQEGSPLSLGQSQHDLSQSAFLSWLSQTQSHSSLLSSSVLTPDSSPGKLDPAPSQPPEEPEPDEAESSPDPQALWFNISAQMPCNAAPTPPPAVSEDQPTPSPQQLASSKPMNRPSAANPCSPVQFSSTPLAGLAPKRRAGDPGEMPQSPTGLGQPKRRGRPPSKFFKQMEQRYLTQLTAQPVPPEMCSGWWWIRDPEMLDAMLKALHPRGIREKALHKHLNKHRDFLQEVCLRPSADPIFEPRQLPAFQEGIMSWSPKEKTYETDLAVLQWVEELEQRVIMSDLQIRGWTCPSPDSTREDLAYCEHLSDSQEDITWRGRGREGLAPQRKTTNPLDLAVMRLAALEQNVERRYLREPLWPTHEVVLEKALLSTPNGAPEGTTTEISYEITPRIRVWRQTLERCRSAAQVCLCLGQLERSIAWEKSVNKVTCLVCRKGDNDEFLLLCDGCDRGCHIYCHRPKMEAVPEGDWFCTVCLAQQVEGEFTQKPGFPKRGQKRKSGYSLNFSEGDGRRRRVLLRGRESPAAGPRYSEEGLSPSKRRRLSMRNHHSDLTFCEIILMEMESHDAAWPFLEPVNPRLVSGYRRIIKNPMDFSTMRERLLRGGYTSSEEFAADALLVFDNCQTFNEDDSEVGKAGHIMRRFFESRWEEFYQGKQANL

Activity: > 50%
SMILES: CC(=O)c1c(C)[nH]c(-c2csc(N=C(N)N)n2)c1CCC(C)C
